Assay results: ChEMBL document CHEMBL4680187, “Optimization of EphA2 antagonists based on a lithocholic acid core led to the identification of UniPR505, a new 3α-carbamoyloxy derivative with antiangiogenetic properties” (Eur J Med Chem, 2020)

What was measured:
Ephrin type-B receptor 4 = molecular target: T1, Ephrin type-B receptor 4 (Mus musculus, UniProt P54761); assay: Displacement of biotinylated ephrin-B1-Fc from mouse EphB4 Fc preincubated for 1 hr followed by ephrin-B1-FC addition and measured after 4 hrs by ELISA
T1 sequence (P54761 whole entry): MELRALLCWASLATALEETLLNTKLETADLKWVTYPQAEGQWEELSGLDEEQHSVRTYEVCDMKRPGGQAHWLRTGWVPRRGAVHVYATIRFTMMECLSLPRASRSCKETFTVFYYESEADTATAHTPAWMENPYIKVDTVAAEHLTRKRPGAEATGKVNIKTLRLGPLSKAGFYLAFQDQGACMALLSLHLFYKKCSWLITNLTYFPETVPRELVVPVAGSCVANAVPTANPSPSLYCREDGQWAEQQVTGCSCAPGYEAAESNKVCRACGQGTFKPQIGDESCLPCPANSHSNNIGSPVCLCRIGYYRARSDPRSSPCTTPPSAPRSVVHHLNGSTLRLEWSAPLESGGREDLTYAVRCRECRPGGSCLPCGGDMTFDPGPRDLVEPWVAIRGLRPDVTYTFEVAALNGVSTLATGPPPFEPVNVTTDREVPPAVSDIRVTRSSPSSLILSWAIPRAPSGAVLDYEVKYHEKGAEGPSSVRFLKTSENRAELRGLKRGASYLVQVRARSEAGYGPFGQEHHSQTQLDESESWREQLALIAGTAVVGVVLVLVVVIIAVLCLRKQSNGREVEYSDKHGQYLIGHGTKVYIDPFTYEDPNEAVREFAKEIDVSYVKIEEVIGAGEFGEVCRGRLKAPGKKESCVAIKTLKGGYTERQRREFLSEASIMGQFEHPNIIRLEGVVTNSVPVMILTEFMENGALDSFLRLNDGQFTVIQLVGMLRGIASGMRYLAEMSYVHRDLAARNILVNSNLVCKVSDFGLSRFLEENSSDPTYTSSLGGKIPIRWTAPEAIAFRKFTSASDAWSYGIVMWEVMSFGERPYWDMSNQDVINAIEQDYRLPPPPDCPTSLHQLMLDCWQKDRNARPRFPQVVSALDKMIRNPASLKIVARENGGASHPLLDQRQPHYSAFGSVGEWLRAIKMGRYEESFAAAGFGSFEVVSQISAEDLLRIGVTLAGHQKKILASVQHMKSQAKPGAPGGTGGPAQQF

Ephrin type-B receptor 3 = molecular target: T2, Ephrin type-B receptor 3 (Mus musculus, UniProt P54754); assay: Displacement of biotinylated ephrin-B1-Fc from mouse EphB3 Fc preincubated for 1 hr followed by ephrin-B1-FC addition and measured after 4 hrs by ELISA
T2 sequence (P54754 whole entry): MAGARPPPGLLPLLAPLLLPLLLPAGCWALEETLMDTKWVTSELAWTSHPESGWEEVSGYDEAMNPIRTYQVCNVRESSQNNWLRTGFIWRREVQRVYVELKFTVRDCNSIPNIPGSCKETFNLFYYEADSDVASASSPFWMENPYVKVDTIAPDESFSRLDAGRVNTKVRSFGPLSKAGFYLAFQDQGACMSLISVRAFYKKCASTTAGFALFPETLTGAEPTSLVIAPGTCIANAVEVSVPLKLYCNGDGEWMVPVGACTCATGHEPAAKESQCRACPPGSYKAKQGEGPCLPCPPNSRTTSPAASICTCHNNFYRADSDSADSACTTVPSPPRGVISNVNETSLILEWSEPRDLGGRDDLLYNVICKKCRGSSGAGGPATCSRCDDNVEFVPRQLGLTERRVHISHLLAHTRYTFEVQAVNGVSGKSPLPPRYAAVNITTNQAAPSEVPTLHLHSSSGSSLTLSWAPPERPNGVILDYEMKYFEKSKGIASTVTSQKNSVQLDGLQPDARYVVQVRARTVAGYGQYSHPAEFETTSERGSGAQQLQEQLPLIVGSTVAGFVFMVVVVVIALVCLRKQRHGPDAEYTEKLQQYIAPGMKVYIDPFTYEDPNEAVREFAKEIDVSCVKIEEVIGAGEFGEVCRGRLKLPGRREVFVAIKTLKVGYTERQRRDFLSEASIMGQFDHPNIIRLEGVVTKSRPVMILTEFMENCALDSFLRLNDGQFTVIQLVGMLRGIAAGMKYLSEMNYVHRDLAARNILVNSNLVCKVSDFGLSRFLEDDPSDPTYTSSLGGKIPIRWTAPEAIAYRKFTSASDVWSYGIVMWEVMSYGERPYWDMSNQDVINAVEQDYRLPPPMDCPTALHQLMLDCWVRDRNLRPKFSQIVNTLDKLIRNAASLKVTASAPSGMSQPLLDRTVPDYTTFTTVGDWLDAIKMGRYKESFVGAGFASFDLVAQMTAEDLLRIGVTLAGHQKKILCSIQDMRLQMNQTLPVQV

Ephrin type-B receptor 2 = molecular target: T3, Ephrin type-B receptor 2 (Mus musculus, UniProt P54763); assay: Displacement of biotinylated ephrin-B1-Fc from mouse EphB2 Fc preincubated for 1 hr followed by ephrin-B1-FC addition and measured after 4 hrs by ELISA
T3 sequence (P54763 whole entry): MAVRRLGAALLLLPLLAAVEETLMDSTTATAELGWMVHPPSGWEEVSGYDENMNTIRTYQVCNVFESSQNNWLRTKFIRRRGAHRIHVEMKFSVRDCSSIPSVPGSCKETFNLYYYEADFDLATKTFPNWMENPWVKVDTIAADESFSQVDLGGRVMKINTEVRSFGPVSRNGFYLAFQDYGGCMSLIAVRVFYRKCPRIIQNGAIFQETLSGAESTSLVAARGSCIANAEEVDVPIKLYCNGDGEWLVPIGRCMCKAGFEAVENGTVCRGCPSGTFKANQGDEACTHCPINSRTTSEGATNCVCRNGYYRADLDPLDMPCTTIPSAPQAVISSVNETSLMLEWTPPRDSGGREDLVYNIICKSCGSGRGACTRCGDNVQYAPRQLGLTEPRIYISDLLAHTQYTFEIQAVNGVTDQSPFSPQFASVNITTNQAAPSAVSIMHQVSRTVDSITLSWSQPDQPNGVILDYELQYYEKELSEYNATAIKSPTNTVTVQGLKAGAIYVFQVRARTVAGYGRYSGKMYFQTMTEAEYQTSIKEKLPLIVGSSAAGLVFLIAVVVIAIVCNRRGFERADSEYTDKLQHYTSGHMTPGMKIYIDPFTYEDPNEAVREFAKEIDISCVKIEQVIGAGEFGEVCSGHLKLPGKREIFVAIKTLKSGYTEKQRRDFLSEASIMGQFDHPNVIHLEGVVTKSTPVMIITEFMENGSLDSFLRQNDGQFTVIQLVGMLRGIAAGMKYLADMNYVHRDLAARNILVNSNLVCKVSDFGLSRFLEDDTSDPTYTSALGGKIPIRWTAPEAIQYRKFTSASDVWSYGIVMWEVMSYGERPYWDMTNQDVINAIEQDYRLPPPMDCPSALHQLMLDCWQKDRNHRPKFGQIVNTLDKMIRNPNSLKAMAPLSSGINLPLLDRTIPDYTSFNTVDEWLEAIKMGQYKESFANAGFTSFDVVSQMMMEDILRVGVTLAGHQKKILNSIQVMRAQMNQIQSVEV

Compound: CCNC(=O)O[C@@H]1CC[C@@]2(C)[C@H](CC[C@@H]3[C@@H]2CC[C@]2(C)[C@@H]([C@H](C)CCC(=O)N[C@H](CC(=O)O)Cc4c[nH]c5ccccc45)CC[C@@H]32)C1
- IC50 (Ephrin type-B receptor 4): > 30 µM
- IC50 (Ephrin type-B receptor 3): 11 µM
- IC50 (Ephrin type-B receptor 2): 14 µM
